In paper PMC10970734, “Identification of an Intravenous Injectable NK1 Receptor Antagonist for Use in Traumatic Brain Injury” (International Journal of Molecular Sciences, 2024):
“Also recorded” adds a separate entry of the source.

Columns and labels:
NK1R [1] = target: T1, NK1R (Homo sapiens, UniProt P25103); test: Radioligand binding, competition for [3H]SP, CHO cells transfected with human NK1R; parameters: expressed in transfected cells; host or cells: CHO cells (ATCC); settings: competition for [3H]SP binding (0.6 nM)
T1 sequence (P25103 whole entry): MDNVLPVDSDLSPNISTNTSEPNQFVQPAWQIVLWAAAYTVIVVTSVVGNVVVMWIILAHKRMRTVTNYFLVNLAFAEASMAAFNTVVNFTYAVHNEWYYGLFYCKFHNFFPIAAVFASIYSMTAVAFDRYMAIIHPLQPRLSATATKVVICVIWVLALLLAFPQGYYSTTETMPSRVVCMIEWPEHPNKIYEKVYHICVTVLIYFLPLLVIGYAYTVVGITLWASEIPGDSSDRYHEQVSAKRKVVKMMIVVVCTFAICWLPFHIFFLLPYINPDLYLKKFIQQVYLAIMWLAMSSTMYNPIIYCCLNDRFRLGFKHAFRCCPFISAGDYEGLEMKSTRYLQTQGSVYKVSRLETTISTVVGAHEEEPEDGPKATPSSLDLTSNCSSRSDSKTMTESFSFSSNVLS
Experimental: The affinity of EUC-001 for the human NK1R was assessed by radioligand binding assays using Chinese hamster ovary (CHO) cells transfected with the human NK1R. Radioligand binding studies, evaluating competition for [^3H]
Radioligand binding assays were performed using CHO cells (ATCC, Middlesex, UK) transfected with the human NK1R (accession number NM_001058). Assays were performed in 50 mM HEPES buffer (pH 7.4; Sigma-Aldrich, St Louis, MO, USA) containing BSA (0.04%; Sigma-Aldrich, St Louis, MO, USA), leupeptin (8 μg/mL; Sigma-Aldrich, St Louis, MO, USA), MnCl2 (3 mM; Sigma-Aldrich, St Louis, MO, USA) and phosphoramidon (2 μM; Sigma-Aldrich, St Louis, MO, USA). In total, 250 μL of membrane suspension was incubated with 125 μL of unlabelled EUC-001 (synthesized by Hoffmann-La Roche, Basel, Switzerland) dissolved in assay buffer, and 125 μL of [^3H]SP (final concentration 0.6 nM; Amersham Biosciences, Amersham, UK). Displacement curves were determined with seven concentrations of EUC-001. Following incubation (60 min at room temperature), the mixture was rapidly filtered through pre-soaked Whatman GF/C filters (Sigma-Aldrich, St Louis, MO, USA) and washed with 2 × 2 mL HEPES buffer (Sigma-Aldrich, St Louis, MO, USA), and bound radioactivity was measured by scintillation counting (Beckman Coulter, Brea, CA, USA). Assays were performed in triplicate in 2 separate experiments.

[2] = target: T2, recombinant human NK3 receptor (Homo sapiens, UniProt P29371); test: Radioligand binding, recombinant human NK3 receptor
T2 sequence (P29371 1-465): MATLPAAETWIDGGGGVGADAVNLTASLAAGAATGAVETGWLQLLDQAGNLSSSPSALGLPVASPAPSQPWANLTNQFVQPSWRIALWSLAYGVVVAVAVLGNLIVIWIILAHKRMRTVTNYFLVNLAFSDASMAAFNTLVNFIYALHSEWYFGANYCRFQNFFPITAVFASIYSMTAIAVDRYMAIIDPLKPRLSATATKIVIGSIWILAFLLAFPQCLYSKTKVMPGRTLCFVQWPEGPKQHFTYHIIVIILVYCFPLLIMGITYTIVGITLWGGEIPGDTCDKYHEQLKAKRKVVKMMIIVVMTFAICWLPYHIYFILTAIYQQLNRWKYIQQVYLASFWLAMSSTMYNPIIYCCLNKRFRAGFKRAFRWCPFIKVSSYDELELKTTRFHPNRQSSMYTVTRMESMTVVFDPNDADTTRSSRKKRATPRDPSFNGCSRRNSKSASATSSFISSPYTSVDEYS

rodent model of TBI = test: BBB permeability after TBI, Evan's blue extravasation; format: in vivo, Sprague Dawley rats; settings: rat TBI
Excerpt: Injury was induced in halothane-anesthetized (ProVet) male Sprague Dawley rats (400 ± 20 g) using acceleration-induced impact TBI [29, 93]. This model involves impacting a 10 mm diameter, 3 mm thick stainless steel disc fixed centrally to the exposed skull between the lambda and bregma with an accelerating impactor. The impactor was a 450 g brass weight dropped from a height of 2 m. […] All animals were fed and watered ad libitum before the induction of injury. During both surgery and the immediate recovery phase, rat rectal temperature was maintained using a thermostatically controlled heating pad. Immediately after injury, animals were manually ventilated until stable respiration was restored, usually in <5 min. After injury, all wounds were sutured. Blood pressure was monitored, both before and after injury, using a femoral arterial line.
The optimal dose of the NK1 receptor antagonist was determined from the level of BBB permeability using EB dye extravasation as the BBB marker [94, 95]. Briefly, EUC-001 was administered intravenously 30 min after TBI at doses ranging between 0.03 and 10 mg/kg in six steps (n = 3 per group). […] The supernatants were measured at 610 nm for absorbance of EB using a spectrophotometer (Cole-Parmer, Vernon Hills, IL, USA). Evans blue is expressed as mg/mg of the brain tissue against a standard curve.

NK1R [3] = target: T1, NK1R; test: In vitro functional assay, free Ca2+ concentration in U373MG cells endogenously expressing NK1R; format: cell-based; parameters: which endogenously express the NK1R; endogenous in cells; host or cells: U373MG human glioblastoma astrocytoma cells (ATCC)
Experimental: In vitro functional assays were performed by assessing changes in free Ca^2+ ion concentration in human glioblastoma (U373MG) cells, which endogenously express the NK1R. Agonist activity of EUC-001 is expressed as a percentage of the agonist response induced by the selective NK1R agonist [Sar^9, Met(O2)^11]-substance P (100 nM; Figure 2A), whilst antagonist activity is expressed as a percentage change in the response induced by 3 nM [Sar^9, Met(O2)^11]-SP (Figure 2B).
Human glioblastoma astrocytoma (U373MG) cells (ATCC) were used for in vitro function studies involving intracellular calcium measurements. […] Intracellular calcium concentrations were determined by using the calcium chelating agent fura-2 (Molecular Probes, Waltham, MA, USA). Aliquots of fura-2-loaded cells were subject to agonist stimulation and fluorescence emission was recorded using an MS-5 spectrophotometer (Perkin Elmer, Shelton, CT, USA). Loading of cells, fluorescence monitoring, calibration procedures, and other experimental details were as previously described.
For agonist activity, results are expressed as a percentage of the control agonist response induced by the selective NK1R agonist [Sar^9, Met(O2)^11]-substance P (100 nM) for a range of concentrations of EUC-001. […]

Structure (SMILES): Cc1ccccc1-c1cc(N2CCN(C)CC2)ncc1C(=O)N(C)Cc1cc(C(F)(F)F)cc(C(F)(F)F)c1 [EUC-001, N-(3,5-Bis-trifluoromethyl-benzyl)-N-methyl-6-(4-methyl-piperazine-1-yl)-4-o-tolyl-nicotinamide]
- Ki (NK1R [1]): 0.575 nM
- Ki [2]: 17000 nM
- Evan's blue leakage relative to drug vehicle (rodent model of TBI; 10 mg/kg 30 min post-injury, tissues 5 h after injury): significant reduction
- IC50, decrease in Evan's blue extravasation (rodent model of TBI; bolus iv 30 min after injury, 0.03-10 mg/kg): 0.43 mg/kg
- Agonist activity, percentage of response to 100 nM [Sar9, Met(O2)11]-substance P (NK1R [3]): did not exhibit any detectable agonist activity; also recorded: no agonist activity
- IC50 (NK1R [3]; 3 nM [Sar9, Met(O2)11]-SP, read-out: IC50, inhibition of [Sar9, Met(O2)11]-SP-mediated response): 0.69 nM
